# Reference: patent publication US10537100B2, “Substituted methylenedioxybenzyl compounds and their use as synergists” (Endura SPA, priority 2015, dated 2020)
# Key:
# [1] = system: CYP6CM1 from Bemisia tabaci; experiment: Inhibition of recombinant oxidase enzyme (P450) CYP6CM1, 7-ethoxycoumarin O-deethylation; conditions: for inhibition activity compared with PBO: CYP6CM1, statement in text; for Bemisia tabaci CYPCM1 percentage of activity remaining: recombinant enzyme 50 μL + 3 μL of 10 mM stock in acetone, 10 min incubation, 7-ethoxycoumarin
# Procedure: (§1) Ability of the synergists of the invention to inhibit oxidative enzymes (P450), a major mechanism conferring resistance to xenobiotics, was measured using recombinant enzymes corresponding to CYP6CY3 from Myzus persicae and CYP6CM1 from Bemisia tabaci.
# (§2) The following synergists were tested in comparison with piperonyl butoxide (PBO): • 5-n-butyl-6-((prop-2-ynyloxy)methyl)benzo[d][1,3]dioxole the compound prepared in Example 2 • 5-n-hexyl-6-((prop-2-ynyloxy)methyl)benzo[d][1,3]dioxole the compound prepared in Example 1 CYP6CM1
# Substrate used was 7-ethoxycoumarin for inhibition assays as described by Ulrich and Weber (1972) and adapted to microplate format as described by De Sousa et al. (1995).
# For inhibition assays, stock solutions of the compounds of Example 1 and Example 2 (10 mM) were prepared in acetone. Diluted recombinant enzyme (50 μL) was mixed with 3 μL of the above mentioned compound stock solutions, with acetone only used as a control. After 10 min incubation at room temperature, 80 μL of 0.125 mM 7-ethoxycoumarin was added, followed by 10 μL 9.6 mM NADPH (nicotinamide adenine dinucleotide phosphate) in 0.1 M sodium phosphate, pH 7.8, and O-deethylation activity monitored as above. A PBO solution (10 mM) was prepared in the same way as a comparison.
# [2] = system: CYP6CY3 from Myzus persicae; experiment: Inhibition of recombinant oxidase enzyme (P450) CYP6CY3, MFC substrate; type: biochemical; conditions: for inhibition activity compared with PBO: CYP6CY3, statement in text; for Myzus persicae CYP6CY3 percentage of activity remaining: recombinant enzyme 50 μL + 3 μL stock in acetone (Examples 1 and 2: 0.1 mM; PBO: 10 mM), 10 min incubation, MFC
# Procedure: as §1, §2
# For CYP6CY3, 7-ethoxycoumarin was not an appropriate substrate and MFC (7-methoxy-4-trifluoromethylcoumarin) was utilised instead. MFC was dissolved in dimethylsulfoxide to make a 20 mM stock solution and diluted by the addition of 0.1 M sodium phosphate buffer, pH 7.8, to give a concentration of 0.5 mM. Recombinant enzyme (10 μL) was added to separate wells of a microplate as before and diluted to 50 μL with 0.1 M phosphate buffer pH 7.6, followed by the addition of 80 μL of 0.5 mM MFC. The microplate was incubated for 5 min at 30° C., and the reaction was initiated by the addition of 10 μL of 9.6 mM NADPH in 0.1 M sodium phosphate, pH 7.8. Enzyme activity was read in a Spectramax Gemini EM for 60 min, with readings taken every 2 min, using an excitation wavelength of 410 nm and an emission wavelength of 510 nm, with a 495 nm cut-off filter. The rate (FU min^−1) was calculated by the integrated software, Softmax Pro v.5.4. as before.
# For inhibition assays, stock solutions of the compounds of Example 1 and 2 (0.1 mM) were prepared in acetone. Dilute recombinant enzyme (50 μL) was mixed with 3 μL of stock solutions, with acetone only used as a control. After 10 min incubation at room temperature, 80 μL of 0.5 mM MFC was added, followed by 10 μL of 9.6 mM NADPH in 0.1 M sodium phosphate, pH 7.8. Enzyme activity remaining was then monitored as above. A PBO solution (10 mM) was prepared in the same way as a comparison.
# Musca domestica = experiment: Contact test on treated glass surfaces, synergist with cypermethrin; type: in vivo; conditions: in combination with cypermethrin
# Procedure: Laboratory bred Musca domestica species, 4-5 days old mixed sex imagoes derived from a field collected strain were assayed for the test. 1000 ml of test solutions were prepared diluting in water 6.06 grams of cypermethrin commercial formulation, equivalent to 0.224 g of cypermethrin per liter of insecticidal solution and a suitable amount of synergist such as to have a ratio between cypermethryn and synergists=1:13. The synergists were formulated in the form of emulsified concentrate (EC). The following amount of the formulations of synergist EC were added to the above described insecticidal solution of cypermethrin.
# 3.83 g of EC formulation containing 77.1% (w/w) of the compound of Example 2 (5-n-butyl-6-((prop-2-ynyloxy)methyl)benzo[d][1,3]dioxole)
# 3.57 g of EC formulation containing 83% (w/w) of the comparison compound 5-(but-2-ynyloxymethyl)-6-n-propyl-benzo[1,3]dioxole (EN126) corresponding to 2.95 g of the compound of the invention and of the comparison product per liter of test formulation
# 1 ml of each test formulation was applied to each individual grass surface of 100 cm^2 by means of a hand held pump sprayer on a scale measuring by 2 decimal precision, being the acceptable limit of divergence: +/−10%. The treated glass surfaces were left at room temperature for 24 hours after treatment and prior to be used. 40 mixed sex Musca domestica imagoes (20 males and 20 females) were selected and placed into a 500 cm^3 glass cylinders covered with an untreated glass surface until the start of the study. Five replicates were executed, altogether 200 houseflies (100 males and 100 females) were used per test formulation. At the beginning of the test, the untreated glass covering the glass cylinder was replaced with a glass surface treated with the test formulation. The exposure time was 30 minutes. After this period of time, the treated glass surfaces were removed and replaced with untreated ones. During the test water and food (water/sugar solution) were provided to the test insect inside the glass cylinders
# In parallel with the test, the mortality of flies in an untreated control replicate was determined using the same conditions and methods. Throughout the control test, non-treated glass surfaces covered the glass cylinders. The maximum mortality rate allowed within the control group to consider the test representative was 10% after 24 hours. If above this value, the test was not considered representative and was repeated. During the trials, no deviance has been noted.
# The test conditions were as follows: • temperature: 23-25° C. • relative humidity: min. 60% • light regime: 12 hrs dark/12 hrs natural illumination.
# The reading intervals of the number of knocked down flies were: 10-20-30-40-50-60-90-120-180 minutes. Mortality was determined after 24 hours.
# The efficacy was calculated according the following formula
SMILES,inhibition activity compared with PBO [1],Bemisia tabaci CYPCM1 percentage of activity remaining [1],inhibition activity compared with PBO [2],Myzus persicae CYP6CY3 percentage of activity remaining [2],efficacy compared with comparison product EN126 (Musca domestica),knock down activity compared with comparison product EN126 (Musca domestica; clearly notable at short times)
"C#CCOCc1cc2c(cc1CCCC)OCO2 [Compound of Example 2, 5-n-butyl-6-((prop-2-ynyloxy)methyl)benzo[d][1,3]dioxole]",better than PBO,53.48%,better than PBO,4.04%,better efficacy,better knock down activity
"C#CCOCc1cc2c(cc1CCCCCC)OCO2 [Compound of Example 1, 5-n-hexyl-6-((prop-2-ynyloxy)methyl)benzo[d][1,3]dioxole]",better than PBO,85.19%,better than PBO,8.51%,–,–
